Data from patent publication EP4818157A1, “N-SUBSTITUTED CYCLIC AMIDE COMPOUND” (Kissei Pharmaceutical Co., Ltd., priority 2023, dated 2025).

Target: T1, human TSHR (Homo sapiens, UniProt P16473)
T1 construct: expressed in transfected cells
Assay: Measurement of antagonist activity using TSH-induced cAMP production in human TSHR-stably expressing CHO cells
Assay type: cell-based
Settings: human TSH final concentration 50 ng/mL
Method: Measurement of Antagonist Activity Using TSH-induced cAMP Production in Human TSHR-stably Expressing CHO Cells as an Indicator
A gene sequence of human TSHR (reference number NM_000369.2) was inserted into a multiple cloning site of pcDNA3.1(+). The prepared plasmid vector was introduced into CHO cells by a lipofection method to establish human TSHR stably expressing CHO cells. The obtained cells were seeded in a poly-D-lysine-coated 96-well plate at 5 x 10^4 cells/well, and cultured for 1 day in F12 medium containing 10% FBS, 400 µg/mL G418, 50 U/mL penicillin, and 50 µg/mL streptomycin under conditions of 37°C and 5% CO2. After removing a medium, the cells were washed twice with 100 µL per well of an assay buffer (Hanks' Balanced Salt Solution containing 20 mM HEPES and 1 mM IBMX). 30 µL of an assay buffer containing a test compound was added to a well, and the mixture was incubated at room temperature for 15 minutes. Next, 30 µL of an assay buffer containing human TSH (R&D Systems, Inc., final concentration 50 ng/mL) was added, and the mixture was incubated at 37°C for 1 hour. The supernatant was removed, and Lysis and Detection Buffer 2 (Cisbio) was added to prepare a cell lysate by incubating at room temperature for 1 hour. According to the instructions for use of a cAMP Gs HiRange kit (Cisbio), a cell lysate was reacted with d2-labeled cAMP and an anti-cAMP Europium Cryptate labeled antibody (Cisbio) in a 384-well white microplate. Next, a fluorescence intensity ratio (measurement wavelengths 665 nm/620 nm) was measured using a multiplate reader (PHERAstar FSX, BMG LABTECH Japan). A fluorescence intensity ratio of each sample was converted into a cAMP content using a standard curve. A cAMP content was converted into a percentage of a control value, and a cAMP production rate was calculated. Using Prism (Graph Pad Software Inc.), a cAMP production rate was plotted against a test compound concentration, and an IC50 value was calculated. The IC50 of each test compound is shown in the above tables. In the tables, IC50 < 3.0 µM was denoted as A, and 3.0 µM ≤ IC50 < 30 µM was denoted as B. The case where activity was observed but an IC50 value could not be calculated was denoted as C.

T1 sequence (P16473 21-764): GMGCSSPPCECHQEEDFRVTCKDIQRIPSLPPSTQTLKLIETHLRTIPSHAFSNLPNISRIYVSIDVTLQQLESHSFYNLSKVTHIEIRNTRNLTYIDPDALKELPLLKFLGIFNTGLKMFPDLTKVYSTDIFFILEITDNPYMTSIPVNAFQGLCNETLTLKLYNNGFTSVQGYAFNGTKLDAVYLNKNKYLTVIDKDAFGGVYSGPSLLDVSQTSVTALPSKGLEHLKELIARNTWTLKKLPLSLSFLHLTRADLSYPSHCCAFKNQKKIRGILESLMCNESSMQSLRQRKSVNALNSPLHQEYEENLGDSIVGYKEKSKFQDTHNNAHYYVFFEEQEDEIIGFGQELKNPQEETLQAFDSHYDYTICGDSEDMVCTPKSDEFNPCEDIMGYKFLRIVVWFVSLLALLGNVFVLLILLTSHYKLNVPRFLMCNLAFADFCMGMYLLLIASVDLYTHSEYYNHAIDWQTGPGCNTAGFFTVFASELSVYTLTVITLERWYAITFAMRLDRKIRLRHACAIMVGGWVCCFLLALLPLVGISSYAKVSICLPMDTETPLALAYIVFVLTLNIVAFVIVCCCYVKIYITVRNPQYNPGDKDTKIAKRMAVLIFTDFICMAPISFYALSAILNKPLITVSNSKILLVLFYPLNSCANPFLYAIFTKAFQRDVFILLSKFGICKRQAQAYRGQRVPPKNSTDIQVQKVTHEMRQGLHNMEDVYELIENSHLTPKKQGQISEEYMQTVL

| SMILES | IC50 [µM] |
| --- | --- |
| NC(=O)N[C@@H]1Cc2ccc(C(=O)O)cc2N(Cc2cc(C(F)(F)F)ccc2F)C1=O [Example C-29, (R)-1-(2-fluoro-5-(trifluoromethyl)benzyl)-2-oxo-3-ureido-1,2,3,4-tetrahydroquinolin-7-carboxylic acid] | > 30 |
| O=C(NC1CC1)N[C@@H]1CC[C@@H](C(F)F)N(Cc2cc(C(F)(F)F)ccc2F)C1=O [Example A-26, 1-cyclopropyl-3-((3R,6S)-6-(difluoromethyl)-1-(2-fluoro-5-(trifluoromethyl)benzyl)-2-oxopiperidin-3-yl)urea] | 3 to 30 |
| NC(=O)N[C@@H]1Cc2ccc(C(N)=O)cc2N(Cc2cc(C(F)(F)F)ccc2F)C1=O [Example C-30, (R)-1-(2-fluoro-5-(trifluoromethyl)benzyl)-2-oxo-3-ureido-1,2,3,4-tetrahydroquinolin-7-carboxamide] | 3 to 30 |
| NC(=O)N[C@@H]1Cc2ccccc2N(CCCc2ccccc2)C1=O [Example C-26, (R)-1-(2-oxo-1-(3-phenylpropyl)-1,2,3,4-tetrahydroquinolin-3-yl)urea] | > 30 |
| N#Cc1ccc2c(c1)N(Cc1cccc(C(F)(F)F)c1)C(=O)[C@H](NC(N)=O)C2 [Example C-8, (R)-1-(7-cyano-2-oxo-1-(3-(trifluoromethyl)benzyl)-1,2,3,4-tetrahydroquinolin-3-yl)urea] | 3 to 30 |
| NC(=O)N[C@@H]1CC[C@@H]2CC[C@@H](Cc3ccccc3C(F)(F)F)N2C1=O [Example D-3, 1-((3S,6R,8aR)-5-oxo-3-(2-(trifluoromethyl)benzyl)octahydroindolizin-6-yl)urea] | 3 to 30 |
| N#Cc1cccc(CN2C(=O)[C@H](NC(N)=O)Cc3ccccc32)c1 [Example C-2, (R)-1-(1-(3-cyanobenzyl)-2-oxo-1,2,3,4-tetrahydroquinolin-3-yl)urea] | > 30 |
| NC(=O)N[C@@H]1Cc2ccncc2N(Cc2cccc(C(F)(F)F)c2)C1=O [Example C-23, (R)-1-(2-oxo-1-(3-(trifluoromethyl)benzyl)-1,2,3,4-tetrahydro-1,7-naphthyridin-3-yl)urea] | 3 to 30 |
| CO[C@@H](C)C(=O)N[C@@H]1CC[C@@H](C(F)(F)F)N(Cc2cc(C(F)(F)F)ccc2F)C1=O [Example A-25, (S)-N-((3R,6S)-1-(2-fluoro-5-(trifluoromethyl)benzyl)-2-oxo-6-(trifluoromethyl)piperidin-3-yl)-2-methoxypropanamide] | > 30 |
| NC(=O)Nc1ccc(CN2CCCC2)n(Cc2cc(C(F)(F)F)ccc2F)c1=O [Example E-6, 1-(1-(2-fluoro-5-(trifluoromethyl)benzyl)-2-oxo-6-(pyrrolidin-1-ylmethyl)-1,2-dihydropyridin-3-yl)urea] | < 3 |
| NC(=O)N[C@@H]1Cc2ccc(CO)cc2N(Cc2cc(C(F)F)ccc2F)C1=O [Example C-16, (R)-1-(1-(5-(difluoromethyl)-2-fluorobenzyl)-7-(hydroxymethyl)-2-oxo-1,2,3,4-tetrahydroquinolin-3-yl)urea] | < 3 |
| CNC(=O)N[C@@H]1Cc2ccc(C(F)(F)F)cc2N(Cc2cc(C(F)F)ccc2F)C1=O [Example C-28, (R)-1-(1-(5-(difluoromethyl)-2-fluorobenzyl)-2-oxo-7-(trifluoromethyl)-1,2,3,4-tetrahydroquinolin-3-yl)-3-methylurea] | < 3 |
| NC(=O)N[C@@H]1Cc2c(F)cccc2N(Cc2cc(C(F)(F)F)ccc2F)C1=O [Example C-9, (R)-1-(5-fluoro-1-(2-fluoro-5-(trifluoromethyl)benzyl)-2-oxo-1,2,3,4-tetrahydroquinolin-3-yl)urea] | < 3 |
| NC(=O)N[C@@H]1Cc2ccc(C(F)(F)F)cc2N(Cc2cc(C(F)F)ccc2F)C1=O [Example C-15, (R)-1-(1-(5-(difluoromethyl)-2-fluorobenzyl)-2-oxo-7-(trifluoromethyl)-1,2,3,4-tetrahydroquinolin-3-yl)urea] | < 3 |
| NC(=O)N[C@@H]1CC[C@@H](C(F)(F)F)N(Cc2cc(C(F)(F)F)ccc2F)C1=O [Example A-14, 1-((3R,6S)-1-(2-fluoro-5-(trifluoromethyl)benzyl)-2-oxo-6-(trifluoromethyl)piperidin-3-yl)urea] | < 3 |
| NC(=O)N[C@@H]1Cc2cscc2N(Cc2cccc(C(F)(F)F)c2)C1=O [Example C-22, (R)-1-(2-oxo-1-(3-(trifluoromethyl)benzyl)-1,2,3,4-tetrahydrothieno[3,4-b]pyridin-3-yl)urea] | < 3 |
| C=CCc1ccc(NC(N)=O)c(=O)n1Cc1cc(C(F)(F)F)cc(Cl)c1F [Example E-5, 1-(6-allyl-1-(3-chloro-2-fluoro-5-(trifluoromethyl)benzyl)-2-oxo-1,2-dihydropyridin-3-yl)urea] | < 3 |

The next lines start with the values.

| IC50 [µM] | SMILES |
| --- | --- |
| < 3 | COCc1ccc(NC(N)=O)c(=O)n1Cc1cc(C(F)(F)F)cc(Cl)c1F [Example E-2, 1-(1-(3-chloro-2-fluoro-5-(trifluoromethyl)benzyl)-6-(methoxymethyl)-2-oxo-1,2-dihydropyridin-3-yl)urea] |
| < 3 | CC(C)(C)OC(=O)NCCc1cc(NC(N)=O)c(=O)n(Cc2cc(C(F)(F)F)ccc2F)c1 [Example B-3, tert-butyl (2-(1-(2-fluoro-5-(trifluoromethyl)benzyl)-6-oxo-5-ureido-1,6-dihydropyridin-3-yl)ethyl)carbamate] |
| < 3 | N#Cc1ccc(NC(N)=O)c(=O)n1Cc1cc(C(F)(F)F)ccc1F [Example B-7, 1-(6-cyano-1-(2-fluoro-5-(trifluoromethyl)benzyl)-2-oxo-1,2-dihydropyridin-3-yl)urea] |
| < 3 | NC(=O)N[C@@H]1CC[C@@H](C(F)(F)F)N(Cc2cc(C(F)F)ccc2F)C1=O [Example A-15, 1-((3R,6S)-1-(5-(difluoromethyl)-2-fluorobenzyl)-2-oxo-6-(trifluoromethyl)piperidin-3-yl)urea] |
| < 3 | NC(=O)N[C@@H]1Cc2c(F)cc(F)cc2N(Cc2cc(C(F)F)ccc2F)C1=O [Example C-17, (R)-1-(1-(5-(difluoromethyl)-2-fluorobenzyl)-5,7-difluoro-2-oxo-1,2,3,4-tetrahydroquinolin-3-yl)urea] |
| < 3 | NC(=O)N[C@@H]1Cc2ccc(C(F)F)cc2N(Cc2cc(OC(F)(F)F)ccc2F)C1=O [Example C-18, (R)-1-(7-(difluoromethyl)-1-(2-fluoro-5-(trifluoromethoxy)benzyl)-2-oxo-1,2,3,4-tetrahydroquinolin-3-yl)urea] |
| < 3 | NC(=O)N[C@@H]1Cc2ccccc2N(Cc2cc(C(F)F)ccc2F)C1=O [Example C-4, (R)-1-(1-(5-(difluoromethyl)-2-fluorobenzyl)-2-oxo-1,2,3,4-tetrahydroquinolin-3-yl)urea] |
| < 3 | COC[C@@H]1CC[C@@H](NC(N)=O)C(=O)N1Cc1cc(C(F)(F)F)ccc1F [Example D-6, 1-((3R,6S)-1-(2-fluoro-5-(trifluoromethyl)benzyl)-6-(methoxymethyl)-2-oxopiperidin-3-yl)urea] |
| < 3 | C[C@@H]1CC[C@@H](NC(N)=O)C(=O)N1Cc1cc(C(F)(F)F)ccc1F [Example A-13, 1-((3R,6R)-1-(2-fluoro-5-(trifluoromethyl)benzyl)-6-methyl-2-oxopiperidin-3-yl)urea] |
| < 3 | CNC(=O)Nc1ccc(C)n(Cc2cc(C(F)(F)F)cc(Cl)c2F)c1=O [Example B-10, 1-(1-(3-chloro-2-fluoro-5-(trifluoromethyl)benzyl)-6-methyl-2-oxo-1,2-dihydropyridin-3-yl)-3-methylurea] |
| < 3 | NC(=O)N[C@@H]1Cc2ccc(C(F)F)cc2N(Cc2cc(C(F)(F)F)ccc2F)C1=O [Example C-10, (R)-1-(7-(difluoromethyl)-1-(2-fluoro-5-(trifluoromethyl)benzyl)-2-oxo-1,2,3,4-tetrahydroquinolin-3-yl)urea] |
| < 3 | NC(=O)Nc1cc(C(F)(F)F)cn(Cc2cc(C(F)(F)F)ccc2F)c1=O [Example B-6, 1-(1-(2-fluoro-5-(trifluoromethyl)benzyl)-2-oxo-5-(trifluoromethyl)-1,2-dihydropyridin-3-yl)urea] |
| < 3 | NC(=O)N[C@@H]1C[C@H]2C[C@H]2N(Cc2cc(C(F)(F)F)ccc2F)C1=O (relative stereo) [Example A-21, 1-((1R^*,4R^*,6S^*)-2-(2-fluoro-5-(trifluoromethyl)benzyl)-3-oxo-2-azabicyclo[4.1.0]heptan-4-yl)urea] |
| < 3 | Cc1ccc(NC(N)=O)c(=O)n1Cc1cc(C(F)(F)F)ccc1F [Example B-4, 1-(1-(2-fluoro-5-(trifluoromethyl)benzyl)-6-methyl-2-oxo-1,2-dihydropyridin-3-yl)urea] |
